Read-outs that look alike come from different tables or passages of the source.
Experiments:
[1] = target: GDP-bound HRAS wild-type protein (Homo sapiens, UniProt P01112); assay: Binding to HRAS by surface plasmon resonance (SPR), Single Cycle Kinetics; details: for HRAS/KRAS (ratio of KD value with respect to GDP-bound HRAS wild-type protein to KD value with respect to KRAS): SPR KD ratio HRAS/KRAS, class symbols
[2] = target: GDP-bound KRAS wild-type protein (Homo sapiens, UniProt P01116); assay: Binding to KRAS by surface plasmon resonance (SPR), Single Cycle Kinetics; details: GDP-bound KRAS wild-type protein, read-out: KRAS KD
[3] = system: human lung cancer strain NCI-H441;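 further: cell proliferation inhibition after four days measured by CellTiter-Glo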
[4] = target: GDP-bound NRAS wild-type protein (Homo sapiens, UniProt P01111); assay: Binding to NRAS by surface plasmon resonance (SPR), Single Cycle Kinetics; details: for NRAS/KRAS (ratio of KD value with respect to GDP-bound NRAS wild-type protein to KD value with respect to KRAS): SPR KD ratio NRAS/KRAS, class symbols
[5] = SPR, GDP-bound HRAS wild-type protein vs GDP-bound KRAS wild-type protein
[6] = SPR, GDP-bound NRAS wild-type protein vs GDP-bound KRAS wild-type protein
[7] = SPR, GDP-bound HRAS wild-type protein vs GDP-bound KRAS wild-type protein, KD ratio class
[8] = SPR, Single Cycle Kinetics, 1:1 binding model
[9] = SPR, GDP-bound NRAS wild-type protein vs GDP-bound KRAS wild-type protein, KD ratio class
[10] = SPR Single Cycle Kinetics, 1:1 binding model

GDP-bound KRAS wild-type protein, sequence (P01116 whole entry): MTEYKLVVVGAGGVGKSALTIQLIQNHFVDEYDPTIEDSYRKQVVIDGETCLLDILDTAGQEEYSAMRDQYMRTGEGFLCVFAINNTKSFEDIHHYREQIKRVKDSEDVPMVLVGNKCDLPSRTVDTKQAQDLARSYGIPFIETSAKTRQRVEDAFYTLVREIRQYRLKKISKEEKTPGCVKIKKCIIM
GDP-bound NRAS wild-type protein, sequence (P01111 whole entry): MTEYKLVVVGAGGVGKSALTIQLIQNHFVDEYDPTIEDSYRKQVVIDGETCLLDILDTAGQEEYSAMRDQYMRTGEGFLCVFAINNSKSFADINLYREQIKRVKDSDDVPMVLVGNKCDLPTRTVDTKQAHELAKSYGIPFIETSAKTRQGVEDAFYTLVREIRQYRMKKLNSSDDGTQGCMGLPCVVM
GDP-bound HRAS wild-type protein, sequence (P01112 whole entry): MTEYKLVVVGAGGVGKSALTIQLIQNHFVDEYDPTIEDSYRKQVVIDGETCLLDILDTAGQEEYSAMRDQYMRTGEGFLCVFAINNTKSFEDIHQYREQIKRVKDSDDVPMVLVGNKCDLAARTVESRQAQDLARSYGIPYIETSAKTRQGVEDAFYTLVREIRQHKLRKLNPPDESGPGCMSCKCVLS

SMILES | Kd ([2]; SPR, Single Cycle Kinetics) [nM] | IC50 [3] [nM] | HRAS/KRAS (ratio of KD value for HRAS to KD value for KRAS) [1, 5] | NRAS/KRAS (ratio of KD value for NRAS to KD value for KRAS) [4, 6] | other results
CC[C@H](C)[C@@H]1NC(=O)[C@H](CC)N(C)C(=O)C[C@@H](C(=O)N(C)C)N(C)C(=O)[C@H](C2CCCC2)N(C)C(=O)C2(CCCC2)NC(=O)[C@@H]2CCCN2C(=O)[C@H](CCc2cc(F)c(C(F)(F)F)c(F)c2)NC(=O)CN(C)C(=O)[C@H](Cc2ccc(C(F)(F)F)cc2)N2CC/C=C\C[C@@H](C2=O)N(C)C(=O)CN(C)C1=O [PP1273, (2S,8S,14S,20S,23S,27S,30S,36S,38Z)-20-cyclopentyl-8-[2-[3,5-difluoro-4-(trifluoromethyl)phenyl]ethyl]-27-ethyl-N,N,4,19,22,26,32,35-octamethyl-30-[(1S)-1-methylpropyl]-3,6,9,15,18,21,25,28,31,34,42-undecaoxo-2-[[4-(trifluoromethyl)phenyl]methyl]spiro[1,4,7,10,16,19,22,26,29,32,35-undecazatricyclo[34.5.1.0^10,14]dotetracont-38-ene-17,1′-cyclopentane]-23-carboxamide] |  | 16.5 |  |  | HRAS/KRAS (ratio of KD value for HRAS to KD value for KRAS) [1, 7]: B (a compound having 3 or more and less than 10 is denoted as B); Kd [2, 8]: 0.12 nM; NRAS/KRAS (ratio of KD value for NRAS to KD value for KRAS) [4, 9]: A (a compound having 10 or more and less than 20 is denoted as A)
CCCOC[C@H]1C(=O)N[C@@H]([C@@H](C)CC)C(=O)N(C)CC(=O)N(C)[C@H]2C/C=C\CCN(C2=O)[C@@H](Cc2ccc(C)cc2)C(=O)N(C)CC(=O)N[C@@H](CCc2ccc(C(F)(F)F)c(OC)c2)C(=O)N2C[C@@H](C)C[C@H]2C(=O)N(C)C2(CCC2)C(=O)N(C)[C@@H](C2CCCC2)C(=O)N(C)[C@H](C(=O)N(C)C)CC(=O)N1C [PP2365] | 0.02 | 3.3 | B (a compound having 3 or more and less than 10 is denoted as B) | A (a compound having 10 or more and less than 20 is denoted as A) | 
CCO[C@@H]1C[C@H]2C(=O)NC3(CCC3)C(=O)N(C)[C@@H](C3CCCC3)C(=O)N(C)[C@H](C(=O)N(C)C)CC(=O)N(C)[C@@H](CCOC)C(=O)N[C@@H]([C@@H](C)CC)C(=O)N(C)CC(=O)N(C)[C@H]3CCCCCN(C3=O)[C@@H](Cc3ccc(F)cc3)C(=O)N(C)CC(=O)N[C@@H](CCc3cc(F)c(C(F)(F)F)c(F)c3)C(=O)N2C1 [PP1194] | 0.068 | 25.3 | B (a compound having 3 or more and less than 10 is denoted as B) | B (a compound having 3 or more and less than 10 is denoted as B) | 
CCCCCC[C@H]1C(=O)N[C@@H]([C@@H](C)CC)C(=O)N(C)CC(=O)N(C)[C@H]2C/C=C\CCN(C2=O)[C@@H](Cc2ccc(C(F)(F)F)cc2)C(=O)N(C)CC(=O)N[C@@H](CCc2ccc3sccc3c2)C(=O)N2C[C@H](OCC)C[C@H]2C(=O)NC2(CCC2)C(=O)N(C)[C@@H](C2CCCC2)C(=O)N(C)[C@H](C(=O)N(C)C)CC(=O)N1C [PP1259] |  | 62 |  |  | HRAS/KRAS (ratio of KD value for HRAS to KD value for KRAS) [1, 7]: A (a compound having 10 or more and less than 20 is denoted as A); Kd [2, 8]: 0.49 nM; NRAS/KRAS (ratio of KD value for NRAS to KD value for KRAS) [4, 9]: A (a compound having 10 or more and less than 20 is denoted as A)
CCO[C@@H]1C[C@H]2C(=O)NC3(CCC3)C(=O)N(C)[C@@H](C3CCCC3)C(=O)N(C)[C@H](C(=O)N3CCOCC3)CC(=O)N(C)[C@@H](CC3CC3)C(=O)N[C@@H]([C@@H](C)CC)C(=O)N(C)CC(=O)N(C)[C@H]3C/C=C\CCN(C3=O)[C@@H](Cc3ccc(C)cc3)C(=O)N(C)CC(=O)N[C@@H](CCc3cc(F)c(C(F)(F)F)c(F)c3)C(=O)N2C1 [PP1408] |  | 37.6 |  |  | HRAS/KRAS (ratio of KD value for HRAS to KD value for KRAS) [1, 7]: A (a compound having 10 or more and less than 20 is denoted as A); Kd [2, 8]: 0.22 nM; NRAS/KRAS (ratio of KD value for NRAS to KD value for KRAS) [4, 9]: A (a compound having 10 or more and less than 20 is denoted as A)
CC[C@H](C)[C@@H]1NC(=O)[C@@H]2CCCCCN2C(=O)C[C@@H](C(=O)N2CCOCC2)N(C)C(=O)[C@H](C2CCCC2)N(C)C(=O)C2(CCCC2)NC(=O)[C@@H]2CCCN2C(=O)[C@H](CCc2cc(F)c(C(F)(F)F)c(F)c2)NC(=O)CN(C)C(=O)[C@H](Cc2ccc(C(F)(F)F)cc2)N2CCCC[C@@H](C2=O)N(C)C(=O)CN(C)C1=O [PP0595] |  | 80 |  |  | HRAS/KRAS (ratio of KD value with respect to HRAS to KD value with respect to KRAS) [1, 5]: B (a compound having 3 or more and less than 10 is denoted as B); Kd [2, 10]: 1 nM; NRAS/KRAS (ratio of KD value with respect to NRAS to KD value with respect to KRAS) [4, 6]: C (A compound having a KD ratio of 0.1 or more and less than 3 is denoted as C)
CCO[C@@H]1C[C@H]2C(=O)NC3(CCC3)C(=O)N(C)[C@@H](C3CCCC3)C(=O)N(C)[C@H](C(=O)N3CCOCC3)CC(=O)N(C)[C@@H](Cc3ccsc3)C(=O)N[C@@H]([C@@H](C)CC)C(=O)N(C)CC(=O)N(C)[C@H]3CCCCCN(C3=O)[C@@H](Cc3ccc(F)cc3)C(=O)N(C)CC(=O)N[C@@H](CCc3cc(F)c(C(F)(F)F)c(F)c3)C(=O)N2C1 [PP1184] | 0.16 | 91.9 | B (a compound having 3 or more and less than 10 is denoted as B) | B (a compound having 3 or more and less than 10 is denoted as B) | 
CCO[C@@H]1C[C@H]2C(=O)NC3(CC(C)(C)C3)C(=O)N(C)[C@@H](C3CCCC3)C(=O)N(C)[C@H](C(=O)N3CCCCC3)CC(=O)N(C)[C@@H](COC)C(=O)N[C@@H]([C@@H](C)CC)C(=O)N(C)CC(=O)N(C)[C@H]3C/C=C\CCN(C3=O)[C@@H](Cc3ccc(C(F)(F)F)cc3)C(=O)N(C)CC(=O)N[C@@H](CCc3ccc(Cl)c(Cl)c3)C(=O)N2C1 [PP2670] |  | 25.2 |  |  | HRAS/KRAS (ratio of KD value with respect to GDP-bound HRAS wild-type protein to KD value with respect to KRAS) [1]: A (a compound having 10 or more and less than 20 is denoted as A); Kd [2, 10]: 0.48 nM; NRAS/KRAS (ratio of KD value with respect to GDP-bound NRAS wild-type protein to KD value with respect to KRAS) [4]: AA (a compound having 20 or more is denoted as AA)

Continued, in another order:

Kd ([2]; SPR, Single Cycle Kinetics) [nM] | IC50 [3] [nM] | SMILES | HRAS/KRAS (ratio of KD value for HRAS to KD value for KRAS) [1, 5] | NRAS/KRAS (ratio of KD value for NRAS to KD value for KRAS) [4, 6] | other results
1.2 | 28.1 | CC[C@H](C)[C@@H]1NC(=O)[C@H](COC)N(C)C(=O)C[C@@H](C(=O)N(C)C)N(C)C(=O)[C@H](C2CCCC2)N(C)C(=O)C2(CC(C)(C)C2)NC(=O)[C@@H]2C[C@H](C)CN2C(=O)[C@H](CCc2ccc(C(F)(F)F)c(OC)c2)NC(=O)CN(C)C(=O)[C@H](Cc2ccc(C)cc2)N2CC/C=C\C[C@@H](C2=O)N(C)C(=O)[C@@H]2C[C@H](C)CN2C1=O [PP2386] | B (a compound having 3 or more and less than 10 is denoted as B) | A (a compound having 10 or more and less than 20 is denoted as A) | 
6.2 | 97.3 | CCC(CC)[C@H]1C(=O)N(C)[C@H](C(=O)N(C)C)CC(=O)N(C)[C@@H](C(C)C)C(=O)N[C@@H]([C@@H](C)CC)C(=O)N(C)CC(=O)N(C)[C@H]2C/C=C\CCN(C2=O)[C@@H](CC2CCC(F)(F)CC2)C(=O)N(C)CC(=O)N[C@@H](CCc2cc(F)c(C(F)(F)F)c(F)c2)C(=O)N2C[C@@H](C)C[C@H]2C(=O)NC2(CC(C)(C)C2)C(=O)N1C [PP2496] | A (a compound having 10 or more and less than 20 is denoted as A) | A (a compound having 10 or more and less than 20 is denoted as A) | 
 | 8.5 | CCC[C@H]1C(=O)N[C@@H]([C@@H](C)CC)C(=O)N(C)CC(=O)N(C)[C@H]2C/C=C\CCN(C2=O)[C@@H](Cc2ccc(C(F)(F)F)cc2)C(=O)N(C)CC(=O)N[C@@H](CCc2ccc(Cl)c(Cl)c2)C(=O)N2C[C@H](OCC)C[C@H]2C(=O)NC2(CC(C)(C)C2)C(=O)N(C)[C@@H](CC(C)(C)C)C(=O)N(C)[C@H](C(=O)N(C)C)CC(=O)N1C [PP2738] |  |  | HRAS/KRAS (ratio of KD value with respect to GDP-bound HRAS wild-type protein to KD value with respect to KRAS) [1]: A (a compound having 10 or more and less than 20 is denoted as A); Kd [2, 10]: 0.17 nM; NRAS/KRAS (ratio of KD value with respect to GDP-bound NRAS wild-type protein to KD value with respect to KRAS) [4]: AA (a compound having 20 or more is denoted as AA)
0.025 |  | CC[C@H](C)[C@@H]1NC(=O)[C@@H]2CCCCCc3ccc(cc3)C[C@@H](C(=O)N(C)CC(=O)N[C@@H](CCc3ccc(C(F)(F)F)c(OC)c3)C(=O)N3CC4(CC4)C[C@H]3C(=O)NC3(CC(C)(C)C3)C(=O)N(C)[C@@H](C3CCCC3)C(=O)N(C)[C@H](C(=O)N(C)C)CC(=O)N2C)N2CC/C=C\C[C@@H](C2=O)N(C)C(=O)CN(C)C1=O [PP3074] | A (a compound having 10 or more and less than 20 is denoted as A) | A (a compound having 10 or more and less than 20 is denoted as A) | ratio of the KD value with respect to GDP-bound HRAS wild-type protein to the KD value with respect to KRAS ([1]; SPR, KD(HRAS)/KD(KRAS)): A (a compound having 10 or more and less than 20 is denoted as A); IC50 ([3]; read-out: NCI-H441 cell proliferation inhibitory activity, 50% proliferation inhibitory concentration (IC50 value), NCI-H441, four days, CellTiter-Glo): 2.4 nM; ratio of the KD value with respect to GDP-bound NRAS wild-type protein to the KD value with respect to KRAS ([4]; SPR, KD(NRAS)/KD(KRAS)): A (a compound having 10 or more and less than 20 is denoted as A)

Source: patent US20240158446A1, “CYCLIC COMPOUND HAVING SELECTIVE INHIBITORY ACTION ON KRAS OVER HRAS AND NRAS” (CHUGAI SEIYAKU KABUSHIKI KAISHA, priority 2021, published 2024)
